Tested on: Kwl:A-1 brown guinea pigs
Assay: Pigmentation inhibitory effect: UVB-induced pigmentation in brown guinea pigs, L value (lightness) by color-difference meter
Assay type: in vivo, guinea pig
Conditions: 10 ml/kg; for Final day of the test L value: L value (lightness) of the irradiated site on final day (14 days), oral, twice a day, UVB on day 0, 2nd and 4th days; for ΔL value: L value on the observation day minus L value before irradiation, final day (14 days), oral twice a day, larger ΔL values show higher effect
Source text: Ultraviolet ray (UVB) irradiation time was examined using two female 6-week-old Kwl:A-1 brown guinea pigs (SPF). That is, one of the guinea pigs was fixed on the abdominal position, and three 2 cm×2 cm square ultraviolet ray irradiating sites were arranged in bilateral symmetry with the dorsal midline between, thus six sites in total. By shading the body except for the ultraviolet ray irradiating sites, an ultraviolet ray (UVB) was irradiated from a distance of 40 cm using five SE lamps (wavelength 250 to 350 nm, F[…]-E, manufactured by TOSHIBA). […] Examination was made by using five female 7-week-old Kwl:A-1 brown guinea pigs (SPF) in one group. That is, each of the guinea pigs was fixed on the abdominal position using a fixation plate on the respective ultraviolet ray irradiating days (on the day of the commencement of sample administration and on the 2nd and 4th days thereafter). One 2 cm×2 cm square arranged on the left or right side with the guinea pig dorsal midline between was used as the ultraviolet ray irradiating site, and the body was shaded except for the ultraviolet ray irradiating site. Two guinea pigs in one group were irradiated with an ultraviolet ray (LTVB) for 11 minutes and 30 seconds, and three guinea pigs in one group, from a distance of 40 cm using five SE lamps (wavelength 250 to 350 nm, F[…]·E, manufactured by TOSHIBA). During the testing period (14 days), each test sample was orally administered twice a day. Each sample solution was administered at a dose of 10 ml/kg. In this case, the administration was carried out after the ultraviolet ray irradiation on each ultraviolet ray irradiation day, or after the judgment on each pigmentation judging day. Before the irradiation on the day of the commencement of test sample administration and on the final day of the test, a ΔL value (L value on the observation day-L value before irradiation) was calculated by measuring L value (lightness) of the irradiated site using a color-difference meter (CR-300, manufactured by MINOLTA CAMERA).

Row | SMILES | Final day of the test L value | ΔL value
1 | NC[C@H]1CC[C@H](C(=O)O)CC1 [Sample (2), tranexamic acid] | 58.30 ± 1.20 | −3.76 ± 1.78
2 | N[C@@H](CS)C(=O)O [Sample (3), L-cysteine] | 59.52 ± 3.10 | −3.32 ± 1.70
3 | O=C1O[C@H]([C@@H](O)CO)C(O)=C1O [Sample (4), ascorbic acid] | 57.35 ± 1.56 | −4.76 ± 1.62
